{
  "source": "patent US8883745B2",
  "about": "“C—glycolipids with enhanced Th-1 profile” (New York University, priority 2006, dated 2014)",
  "type_in_all_cases": "in vivo",
  "key": {"IFN-γ [1]": {"system": "IFN-γ", "assay": "IFN-γ levels in sera upon i.v. glycolipid administration to BALB/c mice (ELISA)", "set-up": "IFN-γ levels, test 1 / IFN-γ levels, test 2 / IFN-γ levels, average / IFN-γ levels, Total: unit not given here", "conditions": "BALB/c", "how_it_was_run": "(§1)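 Mice were injected intravenously with 1 μg of each glycolipid diluted in PBS, and sera were taken at 0, 2, 6, 12, 24, 48 and 72 h. Serum cytokines were then measured by ELISA against a standard curve.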"}, "IFN-γ [2]": {"system": "IFN-γ", "assay": "IFN-γ levels in sera upon i.v. glycolipid administration to C57BL/6 mice (ELISA)", "set-up": "IFN-γ levels, test 1 / IFN-γ levels, test 2 / IFN-γ levels, average / IFN-γ levels, Total / IFN-γ (B6): unit not given here", "how_it_was_run": "as §1"}, "IL-12": {"system": "IL-12", "assay": "IL-12 levels in sera upon i.v. glycolipid administration to C57BL/6 mice (ELISA)", "set-up": "IL-12 levels, test 1 / IL-12 levels, test 2 / IL-12 levels, average / IL-12 levels, Total: unit not given here", "how_it_was_run": "as §1"}, "IL-4": {"system": "IL-4", "assay": "IL-4 levels in sera upon i.v. glycolipid administration to C57BL/6 mice (ELISA)", "set-up": "unit not given here", "how_it_was_run": "as §1"}, "[3]": {"conditions": "C57BL/6, ratio calculated from Tables 1-6"}, "[4]": {"conditions": "C57BL/6, serum, total over hours 0-72"}},
  "data": [
    {"smiles": "CCCCCCCCCCCCCCCCCCCCCCCCCC(=O)N[C@@H](CO[C@H]1O[C@H](CO)[C@H](O)[C@H](O)[C@H]1O)[C@H](O)[C@H](O)CCCCCCCCCCCCCC", "note": "[KRN, (2S,3S,4R)-1-O-(α-D-galactopyranosyl)-2-(N-hexacosanoylamino)-1,3,4-,-octadecanetriol, reference compound]", "values": [
      {"measurement": "IFN-γ/IL-4 (BALB/c)", "setting": "IFN-γ [1]; ratio calculated from Tables 1-6", "value": 10},
      {"measurement": "IFN-γ levels, average", "setting": "IFN-γ [1]; serum, hour 0", "value": 27},
      {"measurement": "IFN-γ levels, test 1", "setting": "IFN-γ [1]; serum, hour 0", "value": 27},
      {"measurement": "IFN-γ levels, test 2", "setting": "IFN-γ [1]; serum, hour 0", "value": 27},
      {"measurement": "IFN-γ levels, average", "setting": "IFN-γ [1]; serum, hour 2", "value": 945},
      {"measurement": "IFN-γ levels, test 1", "setting": "IFN-γ [1]; serum, hour 2", "value": 841},
      {"measurement": "IFN-γ levels, test 2", "setting": "IFN-γ [1]; serum, hour 2", "value": 1049},
      {"measurement": "IFN-γ levels, average", "setting": "IFN-γ [1]; serum, hour 6", "value": 4752.5},
      {"measurement": "IFN-γ levels, test 1", "setting": "IFN-γ [1]; serum, hour 6", "value": 4170},
      {"measurement": "IFN-γ levels, test 2", "setting": "IFN-γ [1]; serum, hour 6", "value": 5335},
      {"measurement": "IFN-γ levels, average", "setting": "IFN-γ [1]; serum, hour 12", "value": 8393.5},
      {"measurement": "IFN-γ levels, test 1", "setting": "IFN-γ [1]; serum, hour 12", "value": 7996},
      {"measurement": "IFN-γ levels, test 2", "setting": "IFN-γ [1]; serum, hour 12", "value": 8791},
      {"measurement": "IFN-γ levels, average", "setting": "IFN-γ [1]; serum, hour 24", "value": 6740},
      {"measurement": "IFN-γ levels, test 1", "setting": "IFN-γ [1]; serum, hour 24", "value": 6497},
      {"measurement": "IFN-γ levels, test 2", "setting": "IFN-γ [1]; serum, hour 24", "value": 6983},
      {"measurement": "IFN-γ levels, average", "setting": "IFN-γ [1]; serum, hour 48", "value": 112.5},
      {"measurement": "IFN-γ levels, test 1", "setting": "IFN-γ [1]; serum, hour 48", "value": 86},
      {"measurement": "IFN-γ levels, test 2", "setting": "IFN-γ [1]; serum, hour 48", "value": 139},
      {"measurement": "IFN-γ levels, average", "setting": "IFN-γ [1]; serum, hour 72", "value": 36},
      {"measurement": "IFN-γ levels, test 1", "setting": "IFN-γ [1]; serum, hour 72", "value": 36},
      {"measurement": "IFN-γ levels, test 2", "setting": "IFN-γ [1]; serum, hour 72", "value": 36},
      {"measurement": "IFN-γ levels, Total", "setting": "IFN-γ [1]; serum, total over hours 0-72", "value": 21008},
      {"measurement": "IFN-γ/IL-4 (B6)", "setting": "IFN-γ [2]; [3]", "value": 3},
      {"measurement": "IFN-γ levels, average", "setting": "IFN-γ [2]; C57BL/6, serum, hour 0", "value": 31},
      {"measurement": "IFN-γ levels, test 1", "setting": "IFN-γ [2]; C57BL/6, serum, hour 0", "value": 31},
      {"measurement": "IFN-γ levels, test 2", "setting": "IFN-γ [2]; C57BL/6, serum, hour 0", "value": 31},
      {"measurement": "IFN-γ levels, average", "setting": "IFN-γ [2]; C57BL/6, serum, hour 2", "value": 874.5},
      {"measurement": "IFN-γ levels, test 1", "setting": "IFN-γ [2]; C57BL/6, serum, hour 2", "value": 938},
      {"measurement": "IFN-γ levels, test 2", "setting": "IFN-γ [2]; C57BL/6, serum, hour 2", "value": 811},
      {"measurement": "IFN-γ levels, average", "setting": "IFN-γ [2]; C57BL/6, serum, hour 6", "value": 1919},
      {"measurement": "IFN-γ levels, test 1", "setting": "IFN-γ [2]; C57BL/6, serum, hour 6", "value": 1811},
      {"measurement": "IFN-γ levels, test 2", "setting": "IFN-γ [2]; C57BL/6, serum, hour 6", "value": 2027},
      {"measurement": "IFN-γ levels, average", "setting": "IFN-γ [2]; C57BL/6, serum, hour 12", "value": 5352.5},
      {"measurement": "IFN-γ levels, test 1", "setting": "IFN-γ [2]; C57BL/6, serum, hour 12", "value": 5179},
      {"measurement": "IFN-γ levels, test 2", "setting": "IFN-γ [2]; C57BL/6, serum, hour 12", "value": 5526},
      {"measurement": "IFN-γ levels, average", "setting": "IFN-γ [2]; C57BL/6, serum, hour 24", "value": 2216},
      {"measurement": "IFN-γ levels, test 1", "setting": "IFN-γ [2]; C57BL/6, serum, hour 24", "value": 2214},
      {"measurement": "IFN-γ levels, test 2", "setting": "IFN-γ [2]; C57BL/6, serum, hour 24", "value": 2218},
      {"measurement": "IFN-γ levels, average", "setting": "IFN-γ [2]; C57BL/6, serum, hour 48", "value": 126},
      {"measurement": "IFN-γ levels, test 1", "setting": "IFN-γ [2]; C57BL/6, serum, hour 48", "value": 252},
      {"measurement": "IFN-γ levels, test 2", "setting": "IFN-γ [2]; C57BL/6, serum, hour 48", "value": 0},
      {"measurement": "IFN-γ levels, average", "setting": "IFN-γ [2]; C57BL/6, serum, hour 72", "value": 166},
      {"measurement": "IFN-γ levels, test 1", "setting": "IFN-γ [2]; C57BL/6, serum, hour 72", "value": 332},
      {"measurement": "IFN-γ levels, test 2", "setting": "IFN-γ [2]; C57BL/6, serum, hour 72", "value": 0},
      {"measurement": "IFN-γ levels, Total", "setting": "IFN-γ [2]; [4]", "value": 10686},
      {"measurement": "IL-12/IL-4 (B6)", "setting": "IL-12; [3]", "value": 0.3},
      {"measurement": "IL-12 levels, average", "setting": "IL-12; C57BL/6, serum, hour 0", "value": 5},
      {"measurement": "IL-12 levels, test 1", "setting": "IL-12; C57BL/6, serum, hour 0", "value": 5},
      {"measurement": "IL-12 levels, test 2", "setting": "IL-12; C57BL/6, serum, hour 0", "value": 5},
      {"measurement": "IL-12 levels, average", "setting": "IL-12; C57BL/6, serum, hour 2", "value": 0},
      {"measurement": "IL-12 levels, test 1", "setting": "IL-12; C57BL/6, serum, hour 2", "value": 0},
      {"measurement": "IL-12 levels, test 2", "setting": "IL-12; C57BL/6, serum, hour 2", "value": 0},
      {"measurement": "IL-12 levels, average", "setting": "IL-12; C57BL/6, serum, hour 6", "value": 1044.5},
      {"measurement": "IL-12 levels, test 1", "setting": "IL-12; C57BL/6, serum, hour 6", "value": 1116},
      {"measurement": "IL-12 levels, test 2", "setting": "IL-12; C57BL/6, serum, hour 6", "value": 973},
      {"measurement": "IL-12 levels, average", "setting": "IL-12; C57BL/6, serum, hour 12", "value": 195},
      {"measurement": "IL-12 levels, test 1", "setting": "IL-12; C57BL/6, serum, hour 12", "value": 174},
      {"measurement": "IL-12 levels, test 2", "setting": "IL-12; C57BL/6, serum, hour 12", "value": 216},
      {"measurement": "IL-12 levels, average", "setting": "IL-12; C57BL/6, serum, hour 24", "value": 0},
      {"measurement": "IL-12 levels, test 1", "setting": "IL-12; C57BL/6, serum, hour 24", "value": 0},
      {"measurement": "IL-12 levels, test 2", "setting": "IL-12; C57BL/6, serum, hour 24", "value": 0},
      {"measurement": "IL-12 levels, average", "setting": "IL-12; C57BL/6, serum, hour 48", "value": 61.5},
      {"measurement": "IL-12 levels, test 1", "setting": "IL-12; C57BL/6, serum, hour 48", "value": 0},
      {"measurement": "IL-12 levels, test 2", "setting": "IL-12; C57BL/6, serum, hour 48", "value": 123},
      {"measurement": "IL-12 levels, average", "setting": "IL-12; C57BL/6, serum, hour 72", "value": 132.5},
      {"measurement": "IL-12 levels, test 1", "setting": "IL-12; C57BL/6, serum, hour 72", "value": 101},
      {"measurement": "IL-12 levels, test 2", "setting": "IL-12; C57BL/6, serum, hour 72", "value": 164},
      {"measurement": "IL-12 levels, Total", "setting": "IL-12; [4]", "value": 1440},
      {"measurement": "IL-4 level, average", "setting": "IL-4; hour 0", "value": 46},
      {"measurement": "IL-4 level, test 1", "setting": "IL-4; hour 0", "value": 46},
      {"measurement": "IL-4 level, test 2", "setting": "IL-4; hour 0", "value": 46},
      {"measurement": "IL-4 level, average", "setting": "IL-4; hour 2", "value": 3915},
      {"measurement": "IL-4 level, test 1", "setting": "IL-4; hour 2", "value": 3584},
      {"measurement": "IL-4 level, test 2", "setting": "IL-4; hour 2", "value": 4246},
      {"measurement": "IL-4 level, average", "setting": "IL-4; hour 6", "value": 183},
      {"measurement": "IL-4 level, test 1", "setting": "IL-4; hour 6", "value": 122},
      {"measurement": "IL-4 level, test 2", "setting": "IL-4; hour 6", "value": 244},
      {"measurement": "IL-4 level, average", "setting": "IL-4; hour 12", "value": 102.5},
      {"measurement": "IL-4 level, test 1", "setting": "IL-4; hour 12", "value": 103},
      {"measurement": "IL-4 level, test 2", "setting": "IL-4; hour 12", "value": 102},
      {"measurement": "IL-4 level, average", "setting": "IL-4; hour 24", "value": 18},
      {"measurement": "IL-4 level, test 1", "setting": "IL-4; hour 24", "value": 20},
      {"measurement": "IL-4 level, test 2", "setting": "IL-4; hour 24", "value": 16},
      {"measurement": "IL-4 level, average", "setting": "IL-4; hour 48", "value": 1},
      {"measurement": "IL-4 level, test 1", "setting": "IL-4; hour 48", "value": 2},
      {"measurement": "IL-4 level, test 2", "setting": "IL-4; hour 48", "value": 0},
      {"measurement": "IL-4 level, average", "setting": "IL-4; hour 72", "value": 0.5},
      {"measurement": "IL-4 level, test 1", "setting": "IL-4; hour 72", "value": 0},
      {"measurement": "IL-4 level, test 2", "setting": "IL-4; hour 72", "value": 1},
      {"measurement": "IL-4 level, Total", "setting": "IL-4; total over hours 0-72", "value": 4267}
    ]}
  ]
}
